Here are results for two compounds from patent US20240382399A1, “ANTISEBOGENIC COMPOSITION, FORMULATION AND USE OF THE COMPOSITION” (CHEMYUNION LTDA., priority 2021, published 2024).

The subject of assay [1] is C. acnes. Conditions: concentrations of 6.9 mM (1 mg/mL) and 8.6 mM (1 mg/mL); cited from earlier work.
The test system of assay [2] is 5-alpha reductase type 1. Nature of the assay: Expression of 5-alpha reductase type 1 in cultured human keratinocytes (real-time PCR). Format: cell-based. Conditions: Testosterone 1.10^-8 mol/L, 24 hours; compared to the baseline control, P<0.05. The method, then: The objective of the test was to evaluate the effects of P19/7 on the expression of 5-alpha reductase type 1 in cultured human keratinocytes. The enzyme 5-alpha-reductase […] acts in the conversion of testosterone into dihydrotestosterone (DHT), a steroid responsible for modulating sebaceous secretion.
To carry out the assay, commercially obtained human keratinocytes (Rio de Janeiro Cell Bank—BCRJ) were cultivated in specific culture media and maintained in a humid incubator at 37° C. containing 5% CO2. When they reached confluence (3rd to 5th passage), cells were seeded in a 6-well plate and incubated with 0.0049% (w/v) P19/7+Testosterone (1.10^−8 mol/L) or Testosterone (1.10^−8 mol/L) for a period of 24 hours. After 24 hours of incubation, RNA was extracted using the PureLink RNA Mini Kit (Thermo Fisher) and quantified using the NanoDrop Lite spectrophotometer (Thermo Scientific). Tests were performed on a StepOnePlus device (Applied Byosystems). To perform real-time PCR, a commercially available analysis system was used (TaqMan® Gene Expression Assays; SRD5A1: (HS00971643_G1, 5-alpha reductase type 1); B2M: Hs00984230_m1; Applied Biosystems), with primers and probes based on sequence consensus using the TaqMan® RNA-to-CT™ 1-step kit (Applied Byosystems). […] Gene expression of 5-alpha reductase was calculated according to Pfaffl (2001).
In general terms: In qPCR the cycle at which signal appears reflects the starting amount.

For `CCCCCCCC(=O)O` [caprylic acid], the “inhibitory effect on the growth of C. acnes” value in assay [1] is on record as “no apparent inhibitory effect”.
Turning to `C[C@]12CC[C@H]3[C@@H](CCC4=CC(=O)CC[C@@]43C)[C@@H]1CC[C@@H]2O` [testosterone, Testosterone], the “increase of relative expression of type 1 5-alpha-reductase” value in assay [2] amounted to 13%.
